The text below walks through data of publication PMC7612957 (Science (New York, N.Y.), 2020).

“Also recorded” adds a separate entry of the source. Like-named read-outs stand apart in the source and are kept apart here. Where no end group is shown, it is not given here.

In assay [1] the target is T1, NRP1 b1 domain (Homo sapiens, UniProt O14786). Description: ITC binding to NRP1 b1 domain.
The target in assay [2] is T1, NRP1 b1 domain. Put plainly: ITC competition: EG00229 versus S1 CendR peptide for NRP1 b1. As to conditions: pre-incubation with EG00229, N=3. The format is binding.
The next assay concerns SARS-CoV-2. The format is cell-based.
The next assay concerns NRP1. To be noted: selective NRP1 antagonist, binds the b1 CendR binding pocket; ref [14]; cited from earlier work.
In assay [3] the target is T2, NRP1 b1 domain.
T2 chain: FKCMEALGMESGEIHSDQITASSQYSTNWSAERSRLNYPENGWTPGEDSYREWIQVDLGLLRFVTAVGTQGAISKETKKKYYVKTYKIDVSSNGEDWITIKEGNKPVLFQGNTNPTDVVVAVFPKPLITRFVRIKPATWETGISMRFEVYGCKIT
Put plainly: ITC. On the technique in general: Isothermal titration calorimetry measures the heat released or taken up as one component is titrated into another.

Assay [4] addresses T2, NRP1 b1 domain. Put plainly: ITC.

For `NC(N)=NCCC[C@H](NC(=O)c1sccc1NS(=O)(=O)c1cccc2nsnc12)C(=O)O` [EG00229], the Kd at NRP1 b1 domain [1] (read-out: Kd for NRP1 b1 domain, EG00229, pH 5.5, N=3, fit with 1-to-1 ratio binding) was determined as 11 µM; on NRP1 b1 domain [1] (read-out: Kd for NRP1 b1 domain, EG00229, pH 7.5, N=3, fit with 1-to-1 ratio binding) it was 5.1 µM. For the same molecule, at NRP1 b1 domain [2], the “inhibition of S1 CendR peptide binding to b1” value was “blocks S1 CendR peptide binding; also recorded: inhibited the direct binding between b1 and the S1 CendR peptide”. The “reduction of SARS-CoV-2 infection by EG00229” value with SARS-CoV-2 is given as “reduced the efficiency of SARS-CoV-2 infection”. Besides, the “inhibition of VEGF-A binding” value with NRP1 is on record as “inhibits VEGF-A binding”.

As to NSPRRAR [S1 CendR peptide], at NRP1 b1 domain [1] (affinity for NRP1 b1 domain, pH 7.5, N=3, fit with 1-to-1 ratio binding), the Kd came to 20.3 µM.

For NSPRRAR [S1 CendR peptide (679NSPRRAR685)], the figures for the Kd in the assay with NRP1 b1 domain [3] and with NRP1 b1 domain [4] were 20.3 µM and 13 µM, respectively.
